# Assays:
# [1] = Antioxidant activity assessed as DPPH scavenging activity at 100 uM after 60 mins by spectrophotometry; assay type: physicochemical; conditions: 1 h
# [2] = Cytostatic activity against human H460 cells assessed as growth inhibition after 3 to 4 days by MTT assay; assay type: functional, cell-based; conditions: NCI-H460
# [3] = Antioxidant activity assessed as inhibition of lipid peroxidation at 100 uM by spectrophotometry; assay type: physicochemical
# [4] = Antioxidant activity assessed as DPPH scavenging activity at 100 uM after 20 mins by spectrophotometry; assay type: physicochemical
# CCRF-CEM = experiment: Cytostatic activity against human CEM cells assessed as growth inhibition after 3 to 4 days by MTT assay; assay type: functional, cell-based
# MCF7 = experiment: Cytostatic activity against human MCF7 cells assessed as growth inhibition after 3 to 4 days by MTT assay; assay type: functional, cell-based
# Lipoxygenase = Lipoxygenase (Glycine max, UniProt Q39829); experiment: Inhibition of soybean LOX using sodium linoleate as substrate by spectrophotometry
# HeLa = experiment: Cytostatic activity against human HeLa cells assessed as growth inhibition after 3 to 4 days by MTT assay; assay type: functional, cell-based
# [5] = Cytostatic activity against human MIAPaCa2 cells assessed as growth inhibition after 3 to 4 days by MTT assay; assay type: functional, cell-based; conditions: MIA PaCa-2
# [6] = Cytostatic activity against human Molt4/C8 cells assessed as growth inhibition after 3 to 4 days by MTT assay; assay type: functional, cell-based; conditions: MOLT-4
# L1210 = experiment: Cytostatic activity against mouse L1210 cells assessed as growth inhibition after 3 to 4 days by MTT assay; assay type: functional, cell-based
# SW-620 = experiment: Cytostatic activity against human SW620 cells assessed as growth inhibition after 3 to 4 days by MTT assay; assay type: functional, cell-based
# [7] = molecular target: Lipoxygenase (Glycine max) (UniProt Q39829); experiment: Inhibition of soybean LOX using sodium linoleate as substrate at 100 uM by spectrophotometry
Activity [1],inhibition (INH) [3],Activity [4],IC50 (CCRF-CEM),IC50 (MCF7),IC50 (Lipoxygenase; read-out: IC50),IC50 (HeLa),IC50 (L1210),IC50 (SW-620),IC50 (Lipoxygenase),inhibition [7],SMILES,IC50 [2],IC50 [5],IC50 [6]
24%,90%,12%,86 µM,> 100 µM,57.9 µM,186 µM,94 µM,> 100 µM,–,–,COc1cc(NC(C)CCCNC(=O)NC(c2ccccc2)c2ccc(Cl)cc2)c2ncccc2c1 (centres undefined),> 100 µM,181 µM,≥ 250 µM
64%,78%,47%,7.4 µM,2 µM,60.5 µM,18 µM,6.2 µM,7 µM,–,–,COc1ccc(/C(=N/NC(=O)NNC(=O)NCCCC(C)Nc2cc(OC)cc3cccnc23)c2ccccc2)cc1 (centres undefined),7 µM,13 µM,12 µM
26%,77%,19%,10 µM,5 µM,60.5 µM,129 µM,34 µM,> 100 µM,–,–,COc1ccc(/C(=N/NC(=O)NCCCC(C)Nc2cc(OC)cc3cccnc23)c2ccccc2)cc1 (centres undefined),> 100 µM,155 µM,≥ 250 µM
20%,45%,9%,> 250 µM,13 µM,–,> 250 µM,> 250 µM,> 100 µM,Not Active,–,COc1cc(NC(C)CCCNC(=O)NNC(=O)NCCCO)c2ncccc2c1 (centres undefined),> 100 µM,≥ 250 µM,> 250 µM
91%,–,80%,–,–,28 µM,–,–,–,–,84%,CC(Cc1ccc(O)c(O)c1)C(C)Cc1ccc(O)c(O)c1 (centres undefined) [NORDIHYDROGUAIARETIC ACID],–,–,–
55%,77%,30%,5.5 µM,2 µM,70.5 µM,6.9 µM,8.8 µM,3 µM,–,–,COc1cc(NC(C)CCCNC(=O)NNC(=O)NC(c2ccccc2)c2ccc(Cl)cc2)c2ncccc2c1 (centres undefined),3 µM,6 µM,9.6 µM

# — ChEMBL document CHEMBL3352491, “Novel semicarbazides and ureas of primaquine with bulky aryl or hydroxyalkyl substituents: synthesis, cytostatic and antioxidative activity” (Eur J Med Chem, 2014)
